Like-named read-outs stand apart in the source and are kept apart here.
Columns and labels:
male ICR mice = tested on: male ICR mice
Description: In order to examine acute toxicity of compounds according to the present invention, the following experiment was carried out.
Over the entire experimental period of 2 weeks, the minimum lethal dose (MLD, mg/kg) of the compound was investigated by the observation of the mortality, body weight and clinical symptoms of animals.

human 5-HT4 receptor = target: T1, human 5-HT4 receptor (Homo sapiens, UniProt Q13639); experiment: Binding affinity of compounds for 5-HT4 receptor (radioligand displacement, membrane lysates of COS-7 cells); details: inhibition of specific binding of 0.595 nM [H3]-AGR113808; COS-7 cell membrane lysates expressing human 5-HT4 receptor
T1 construct: expressed in transfected cells; host or cells: COS-7
Description: For this purpose, COS-7 cells expressing the human 5-HT4 receptor were constructed and lysed to obtain cell membrane lysates which were then used in binding assay experiments. For binding assay, the membrane lysates were mixed and incubated with different concentrations of test materials and [H3]-AGR113808. […] After incubation was completed, the reaction products were collected in a GF/B glass fiber filter using a Packard cell harvester, and the bound radioactivity was then determined using a liquid cell scintillation counter (Packard TopCount NXT™, Perkin Elmer). Specific binding of the radioligand to the 5-HT4 receptor was calculated by subtracting the non-specific binding of the radioligand from the total radioligand binding. IC50 was calculated from % inhibition of specific binding of the radioligand to the 5-HT4 receptor, with respect to varying concentrations of the test materials.

hERG potassium channel = target: T2, hERG potassium channel (Homo sapiens, UniProt Q12809); experiment: Binding affinity of compounds for hERG receptor ([H3]-Astemizole displacement, HEK-293 membrane lysates); details: % inhibition of specific binding of 1.5 nM [H3]-Astemizole at 10 μM test material
T2 construct: host or cells: HEK-293
Description: Membrane lysates were obtained from mammalian HEK-293 cells expressing the hERG potassium channel and used in binding assay experiments. […] After incubation was completed, the radioactivity bound to the hERG K+ channel was counted. The affinity of each test material for the hERG K+ channel was calculated from % inhibition of specific binding of the radioligand to the hERG K+ channel, resulting from the action of the test material.

[1] = male, ICR, mouse, in vivo, po, 2 weeks
[2] = oral, single dose of 1 g/10 mL/kg in 1% hydroxypropylmethylcellulose, 5-week old male ICR mice, observed 2 weeks

T1 sequence (Q13639 whole entry): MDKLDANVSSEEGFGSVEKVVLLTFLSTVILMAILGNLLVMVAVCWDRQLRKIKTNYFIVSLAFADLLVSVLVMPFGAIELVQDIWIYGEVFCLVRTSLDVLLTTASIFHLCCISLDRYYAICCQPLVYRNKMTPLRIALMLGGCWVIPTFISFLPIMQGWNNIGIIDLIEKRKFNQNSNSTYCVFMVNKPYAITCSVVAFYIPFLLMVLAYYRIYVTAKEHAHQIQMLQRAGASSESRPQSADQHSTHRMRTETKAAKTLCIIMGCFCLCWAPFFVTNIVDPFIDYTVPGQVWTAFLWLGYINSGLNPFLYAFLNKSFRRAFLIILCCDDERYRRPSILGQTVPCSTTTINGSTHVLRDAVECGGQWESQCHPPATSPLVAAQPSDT
T2 sequence (Q12809 whole entry): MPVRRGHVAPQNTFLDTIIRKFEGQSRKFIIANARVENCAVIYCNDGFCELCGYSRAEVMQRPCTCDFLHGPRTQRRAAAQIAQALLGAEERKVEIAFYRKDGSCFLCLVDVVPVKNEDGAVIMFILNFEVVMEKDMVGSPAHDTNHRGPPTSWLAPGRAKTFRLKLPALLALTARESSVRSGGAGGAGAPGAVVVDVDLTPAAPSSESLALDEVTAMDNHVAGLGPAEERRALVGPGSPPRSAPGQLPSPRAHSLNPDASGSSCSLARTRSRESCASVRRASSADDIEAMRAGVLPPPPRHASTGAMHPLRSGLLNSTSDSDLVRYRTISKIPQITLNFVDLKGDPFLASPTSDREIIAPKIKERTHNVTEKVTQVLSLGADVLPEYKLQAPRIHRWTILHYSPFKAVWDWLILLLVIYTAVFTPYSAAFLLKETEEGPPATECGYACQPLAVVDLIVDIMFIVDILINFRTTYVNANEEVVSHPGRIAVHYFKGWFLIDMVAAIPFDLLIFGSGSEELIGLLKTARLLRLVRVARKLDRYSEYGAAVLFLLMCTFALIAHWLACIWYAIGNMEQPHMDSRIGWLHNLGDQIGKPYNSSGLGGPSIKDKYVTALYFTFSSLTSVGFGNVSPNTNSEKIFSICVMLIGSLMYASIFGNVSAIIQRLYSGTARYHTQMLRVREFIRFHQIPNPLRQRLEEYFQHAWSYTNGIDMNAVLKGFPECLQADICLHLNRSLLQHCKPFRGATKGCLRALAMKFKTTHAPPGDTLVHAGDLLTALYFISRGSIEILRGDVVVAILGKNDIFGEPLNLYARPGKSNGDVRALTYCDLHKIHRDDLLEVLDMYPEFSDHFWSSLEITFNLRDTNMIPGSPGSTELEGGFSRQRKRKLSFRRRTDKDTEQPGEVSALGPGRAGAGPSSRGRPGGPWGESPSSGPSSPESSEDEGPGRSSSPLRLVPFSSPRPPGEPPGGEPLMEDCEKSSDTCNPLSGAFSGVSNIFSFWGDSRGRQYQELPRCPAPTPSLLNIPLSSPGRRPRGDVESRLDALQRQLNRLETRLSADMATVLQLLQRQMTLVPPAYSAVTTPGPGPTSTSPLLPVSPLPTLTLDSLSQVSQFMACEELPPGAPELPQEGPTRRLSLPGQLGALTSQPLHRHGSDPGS

Row | Structure (SMILES) | Minimum lethal dose (MLD, mg/kg) (male ICR mice; [1]) [mg/kg] | IC50 (human 5-HT4 receptor) [nM] | Minimum lethal dose (MLD, mg/kg) (male ICR mice; [2]) [mg/kg] | hERG binding affinity (% at 10 μM) (hERG potassium channel) [%]
1 | COc1cc(N)c(Cl)cc1C(=O)N[C@H]1CCN(CCC(=O)Nc2cc(C)cc(C)n2)C[C@H]1OC (relative stereo) [Compound 59, cis-4-amino-5-chloro-N-[1-(3-oxo-3-(4,6-dimethylpyridin-2-ylamino)propyl)-3-methoxypiperidin-4-yl]-2-methoxybenzamide] | >1000 | 140 | – | –
2 | CCOC(=O)N1CCC(CN2CC[C@H](NC(=O)c3cc(Cl)c(N)cc3OC)[C@H](OC)C2)CC1 (relative stereo) [Compound 1, ethyl 4-[(cis-4-(4-amino-5-chloro-2-methoxybenzamido)-3-methoxypiperidin-1-yl)methyl]piperidine-1-carboxylate] | – | 230 | >1000 | –
3 | CCC(=O)N1CCC(CN2CC[C@H](NC(=O)c3cc(Cl)c(N)cc3OC)[C@H](OC)C2)CC1 (relative stereo) [Compound 17, cis-4-amino-5-chloro-N-[1-((1-propionylpiperidin-4-yl)methyl)-3-methoxypiperidin-4-yl]-2-methoxybenzamide] | >1000 | – | – | –
4 | COc1cc(N)c(Cl)cc1C(=O)N[C@H]1CCN(CCc2noc(C)n2)C[C@H]1OC (relative stereo) [Compound 54, cis-4-amino-5-chloro-N-[1-(2-(5-methyl-1,2,4-oxadiazol-3-yl)ethyl)-3-methoxypiperidin-4-yl]-2-methoxybenzamide] | >1000 | – | – | –
5 | COc1cc(N)c(Cl)cc1C(=O)N[C@@H]1CCN(CCc2noc(C)n2)C[C@@H]1OC [Compound 55, (3S,4R)-4-amino-5-chloro-N-[1-(2-(5-methyl-1,2,4-oxadiazol-3-yl)ethyl)-3-methoxypiperidin-4-yl]-2-methoxybenzamide] | – | – | – | 31
6 | CCCOC(=O)N1CCC(CN2CC[C@H](NC(=O)c3cc(Cl)c(N)cc3OC)[C@H](OC)C2)CC1 (relative stereo) [Compound 6, propyl 4-[(cis-4-(4-amino-5-chloro-2-methoxybenzamido)-3-methoxypiperidin-1-yl)methyl]piperidine-1-carboxylate] | – | 94 | >1000 | –
7 | COc1cc(N)c(Cl)cc1C(=O)N[C@H]1CCN(CC2CCN(C(=O)C(C)(C)C)CC2)C[C@H]1OC (relative stereo) [Compound 29, cis-4-amino-5-chloro-N-[1-((1-pivaloylpiperidin-4-yl)methyl)-3-methoxypiperidin-4-yl]-2-methoxybenzamide] | >1000 | 34 | – | –
8 | COc1cc(N)c(Cl)cc1C(=O)N[C@H]1CCN(CC2CCN(C(=O)NC(C)C)CC2)C[C@H]1OC (relative stereo) [Compound 63, 4-[cis-4-(4-amino-5-chloro-2-methoxybenzoylamino)-3-methoxy-piperidin-1-ylmethyl]-piperidine-1-carboxylic acid isopropylamide] | – | 25 | >1000 | –
9 | CCOC(=O)N1CCC(CN2CC[C@@H](NC(=O)c3cc(Cl)c(N)cc3OC)[C@@H](OC)C2)CC1 [Compound 2, ethyl 4-[((3S,4R)-4-(4-amino-5-chloro-2-methoxybenzamido)-3-methoxypiperidin-1-yl)methyl]piperidine-1-carboxylate] | – | 83 | >1000 | –
10 | COc1cc(N)c(Cl)cc1C(=O)N[C@H]1CCN(CCC(=O)Nc2cccc3ncccc23)C[C@H]1OC (relative stereo) [Compound 56, cis-4-amino-5-chloro-N-[1-(3-oxo-3-(quinolin-5-yl-amino)propyl)-3-methoxypiperidin-4-yl]-2-methoxybenzamide] | >1000 | 11 | – | 23
11 | COc1cc(N)c(Cl)cc1C(=O)NC1CCN(CCCOc2ccc(F)cc2)CC1OC (stereo not drawn) [Cisapride, cisapride, reference compound] | >1000 | – | – | –
12 | COc1cc(N)c(Cl)cc1C(=O)N[C@H]1CCN(CC2CCN(C(=O)C(C)C)CC2)C[C@H]1OC (relative stereo) [Compound 14, cis-4-amino-5-chloro-N-[1-((1-isobutyrylpiperidin-4-yl)methyl)-3-methoxypiperidin-4-yl]-2-methoxybenzamide] | >1000 | 141 | – | –
13 | COc1cc(N)c(Cl)cc1C(=O)N[C@H]1CCN(CC2CCN(C(=O)N(C)C)CC2)C[C@H]1OC (relative stereo) [Compound 64, 4-[cis-4-(4-amino-5-chloro-2-methoxybenzoylamino)-3-methoxy-piperidin-1-ylmethyl]-piperidine-1-carboxylic acid dimethylamide] | >1000 | 29 | – | –
14 | COc1cc(N)c(Cl)cc1C(=O)N[C@H]1CCN(CCC(=O)Nc2ccc3[nH]ccc3c2)C[C@H]1OC (relative stereo) [Compound 61, cis-4-amino-5-chloro-N-[1-(3-oxo-3-(1H-indol-5-ylamino)propyl)-3-methoxypiperidin-4-yl]-2-methoxybenzamide] | – | 48 | – | –
15 | CCCCC(=O)N1CCC(CN2CC[C@H](NC(=O)c3cc(Cl)c(N)cc3OC)[C@H](OC)C2)CC1 (relative stereo) [Compound 22, cis-4-amino-5-chloro-N-[1-((1-pentanoylpiperidin-4-yl)methyl)-3-methoxypiperidin-4-yl]-2-methoxybenzamide] | – | 73 | – | –
16 | COc1cc(N)c(Cl)cc1C(=O)N[C@H]1CCN(CCCCCC(=O)Nc2cccc3ncccc23)C[C@H]1OC (relative stereo) [Compound 58, cis-4-amino-5-chloro-N-[1-(6-oxo-6-(quinolin-5-ylamino)hexyl)-3-methoxypiperidin-4-yl]-2-methoxybenzamide] | – | 77 | – | –
17 | C=CCOC(=O)N1CCC(CN2CC[C@H](NC(=O)c3cc(Cl)c(N)cc3OC)[C@H](OC)C2)CC1 (relative stereo) [Compound 10, allyl 4-[(cis-4-(4-amino-5-chloro-2-methoxybenzamido)-3-methoxypiperidin-1-yl)methyl]piperidine-1-carboxylate] | – | 93 | – | –

— patent US20100105727A1, “NOVEL BENZAMIDE DERIVATIVES AND PROCESS FOR THE PREPARTION THEREOF” (DONG-A-PHARM. CO., LTD., priority 2007, published 2010)
